According to patent US5328838A, “Method for identifying and/or isolating genes which code for membrane receptors” (Enichem Partecipazioni S.p.A., priority 1990, dated 1994):

Tested on: human β2-adrenergic receptor, β-galactosidase fusion protein expressed from λβ2 (λgt11) in E. coli Y1089
Details: 20 pM ICYP; non-radiolabeled agonists at 10^-8, 10^-8 and 10^-4 M; FIG. 3
Method: In order to further characterize the specificity of the test by replication on filters, 3 β-adrenergic agonists were tested on [λβ2] cells in bond-competition tests.
The bacterial cells were seeded on slabs of LB-agar of 10 cm of diameter and were grown for 12 hours at 30° C. Circular nitrocellulose filters (of 8.5 cm of diameter), previously drenched in 10 mM IPTG in the case of the expression of [λgt11], [λβ1] and [λβ2] lysogens were then laid above the bacterial colonies; the expression of proteins was induced for 2 hours, at 30° C. for the lysogenic colonies, and at 42° C. for the colonies transformed with pUEX1 and pUEXβ2, before the removal of the filters. The subsequent treatments were carried out at room temperature, with constant rocking. The replications on filter of the bacterial colonies were first incubated for 60 minutes in 10 ml of bond-establishing buffer (90 mM NaCl, 10 mM Tris-HCl pH 7.5) containing 20 mg/ml of bovine serumalbumin, and were then transferred for 90 minutes in 10 ml of bond-establishing buffer containing 20 mg/ml of bovine serumalbumin and 20 pM ICYP (2000 Ci/mmol, Amersham, U.K.). […]

## NC[C@H](O)c1ccc(O)c(O)c1 [norepinephrine, (-)-norepinephrine]
  order of power of competition for the bond of ICYP: isoprotenerol>epinephrine>norepinephrine

## CNC[C@H](O)c1ccc(O)c(O)c1 [epinephrine, (-)-epinephrine]
  order of power of competition for the bond of ICYP: isoprotenerol>epinephrine>norepinephrine
